Assay: evaluation of solubility in water (dissolving at 40° C., then deposition on ice bath at 0° C.)
Type: physicochemical
Details: for Solubility of 0° C.: time to deposition, aqueous solution (20 g/100 mL) on ice bath under stirring; for Solubility at 40° C.: time to dissolve 20 g sample in 100 mL water on warm bath at 40° C., stirred
Protocol: Compounds I-1, I-2, I-4, I-11, I-12, and I-22 obtained above, and the Comparison Compounds a, b, c and d were subjected to evaluation of solubility in water.
Water (100 mL) was added to 20 g of each sample, and the mixture was placed on a warm bath (at 40° C.), and stirred using a magnetic stirrer, so that the added sample was dissolved in the warm water. Then, the obtained aqueous solution was placed on an ice bath under stirring.

Solubility of 0° C.	Solubility at 40° C.	Compound
–	some insoluble remained at 300 sec.	CC(C)(CO)CNc1nc(NCCS(=O)(=O)[O-])nc(Nc2ccc(C=Cc3ccc(Nc4nc(NCCS(=O)(=O)[O-])nc(NCC(C)(C)CO)n4)cc3S(=O)(=O)[O-])c(S(=O)(=O)[O-])c2)n1.[Na+].[Na+].[Na+].[Na+] [Comp. b, reference compound]
–	some insoluble remained at 300 sec.	O=S(=O)([O-])CCNc1nc(NCCCO)nc(Nc2ccc(C=Cc3ccc(Nc4nc(NCCCO)nc(NCCS(=O)(=O)[O-])n4)cc3S(=O)(=O)[O-])c(S(=O)(=O)[O-])c2)n1.[Na+].[Na+].[Na+].[Na+] [Comp. a, reference compound]

More lines, now with the values behind:

Compound	Solubility of 0° C.	Solubility at 40° C.
O=S(=O)([O-])CCNc1nc(NCC(O)CO)nc(Nc2ccc(C=Cc3ccc(Nc4nc(NCCS(=O)(=O)[O-])nc(NCC(O)CO)n4)cc3S(=O)(=O)[O-])c(S(=O)(=O)[O-])c2)n1.[Na+].[Na+].[Na+].[Na+] (stereo not shown) [Comp. I-1]	No deposition within 180 sec.	dissolved within 120 sec.
O=S(=O)([O-])CCNc1nc(NCCC(O)CO)nc(Nc2ccc(C=Cc3ccc(Nc4nc(NCCC(O)CO)nc(NCCS(=O)(=O)[O-])n4)cc3S(=O)(=O)[O-])c(S(=O)(=O)[O-])c2)n1.[Na+].[Na+].[Na+].[Na+] (stereo not shown) [Comp. I-4]	No deposition within 180 sec.	–
O=S(=O)([O-])CCNc1nc(NCCOCCO)nc(Nc2ccc(C=Cc3ccc(Nc4nc(NCCOCCO)nc(NCCS(=O)(=O)[O-])n4)cc3S(=O)(=O)[O-])c(S(=O)(=O)[O-])c2)n1.[Na+].[Na+].[Na+].[Na+] [Comp. I-11]	No deposition within 180 sec.	dissolved within 120 sec.

Source: patent US20050230662A1, “Diaminostilbene derivatives” (priority 1999, published 2005)
